# Test results from PMC11953117 (Cancer Chemotherapy and Pharmacology, 2025).
# Where two headings read alike, the source gives them in different places.
# What was measured:
# [1] = Exposure–response analysis (logistic regression) of safety endpoints; assay type: in vivo, human
# Experimental: (§1) The exposure–response analyses were conducted using a subset of patients from the PopPK analysis where capivasertib was used as monotherapy. […] As different schedules were assessed between and within studies, the exposure metrics were derived for the last dose of the last dosing day in the second week of treatment (i.e. on days 14, 11, and 9 for the continuous, [4/3] and [2/5] schedules, respectively), to ensure SS conditions, using the planned dose. […] The relative dose intensity (RDI) was calculated as the percentage of the average weekly dose relative to the PWD to examine the tolerability of capivasertib monotherapy at the given dosing schedules.
# Logistic regression models were used to establish associations between the probability of the safety endpoints with the exposure metrics at a statistically significant level of 0.005.
# AKT = tested on: AKT; design: method as in PMID 29066505; conditions: 480 mg BID [4/3] versus 320 mg continuous dosing; cited from earlier work
# [2] = Relative dose intensity (RDI) of capivasertib monotherapy; assay type: in vivo, human
# Experimental: as §1
# [3] = Capivasertib exposure metrics at steady state projected with PopPK model, patients with solid tumors; assay type: in vivo; conditions: human, plasma, oral; for concentration at 12 h: read-out: Cmin
# Experimental: Study 1 (NCT01226316) was a phase 1 open-label multipart study. […] The duration of the treatment cycles was 21 days. […] [18]. […] [18, 25, 39].
# Study 4 (NCT01353781) was a phase 1 dose-escalation study in Japanese patients with advanced solid malignancies.
# as §1
# [4] = univariate logistic regression, significance level 0.005
# [5] = 80 mg, Study 1, Continuous BID, PWD 1120 mg, N=5, median (range)
# [6] = 80 mg, Study 4 (Japanese patients), Continuous BID, PWD 1120 mg, N=3, median (range)
# [7] = 240 mg, Study 4 (Japanese patients), Continuous BID, PWD 3360 mg, N=7, median (range)
structure (smiles),measurement,setting,value
"NC1(C(=O)N[C@@H](CCO)c2ccc(Cl)cc2)CCN(c2ncnc3[nH]ccc23)CC1 [capivasertib, 4-amino-N-[(1S)-1-(4-chlorophenyl)-3-hydroxypropyl]-1-(7H-pyrrolo[2,3-d]pyrimidin– 4-yl)piperidine-4-carboxamide]",probability of hyperglycemia AE grade ≥ 3 and increased blood glucose > 13.9 mmol/L,[1]; [2/5] 640 mg compared with [4/3] 480 mg,higher probability
same,probabilities of hyperglycemia AE grade ≥ 3 and increased blood glucose > 13.9 mmol/L: effect of schedule,[1]; at a given dose,did not depend on the schedule
same,"probability of AEDD, AEDM and diarrhea AE grade ≥ 2: effect of schedule","[1]; at a given dose, intermittent schedules compared with continuous, statistically significant",lower probability of events
same,probability of hyperglycemia AE grade ≥ 3 and increased blood glucose > 13.9 mmol/L: effect of schedule,"[1]; at a given weekly dose, intermittent schedules compared with continuous, statistically significant",higher probability of events
same,"probability of rash AE grade ≥ 2, AEDD, AEDM, AE grade ≥ 3, SAE and diarrhea AE grade ≥ 2",[1]; continuous 320 mg (4480 mg weekly) compared with [4/3] 480 mg (3840 mg weekly),higher
same,relationships between exposure metrics and AE grade ≥ 1,"[1]; logistic regression, significance level 0.005",No significant relationships
same,exposure metrics with significant relationship to AE grade ≥ 3,[1]; [4],"dose, PWD, AUC, AUCPWD, Cmax, and Cmin"
same,exposure metrics with significant relationship to AE leading to dose discontinuation,[1]; [4],PWD
same,exposure metrics with significant relationship to AE leading to dose modification,[1]; [4],"PWD, AUC, AUCPWD, Cmax, and Cmin"
same,exposure metrics with significant relationship to SAE,[1]; [4],"dose, PWD, AUC, AUCPWD, Cmax, and Cmin"
same,exposure metrics with significant relationship to diarrhea AE grade ≥ 2,[1]; [4],"PWD, AUCPWD"
same,exposure metrics with significant relationship to hyperglycemia AE grade ≥ 3,[1]; [4],"dose, AUC, AUCPWD, Cmax, and Cmin"
same,exposure metrics with significant relationship to increased blood glucose > 13.9 mmol/L,[1]; [4],"dose, AUC, AUCPWD, Cmax, and Cmin"
same,exposure metrics with significant relationship to rash AE grade ≥ 2,[1]; [4],PWD
same,target engagement in tumor tissue,AKT,greater target engagement
same,RDI,"[2]; OAK, [4/3] BID, 480 mg, PWD 3840 mg, N=30, median (range)",100 (45.6–115.4) %
same,RDI,"[2]; Study 1, Continuous BID, 80 mg, PWD 1120 mg, N=5, median (range)",100.0 (95.9–100.6) %
same,RDI,"[2]; Study 1, Continuous BID, 160 mg, PWD 2240 mg, N=5, median (range)",97.6 (83.5–102.3) %
same,RDI,"[2]; Study 1, Continuous BID, 240 mg, PWD 3360 mg, N=6, median (range)",100.3 (98.8–100.9) %
same,RDI,"[2]; Study 1, Continuous BID, 320 mg, PWD 4480 mg, N=12, median (range)",98.1 (37.2–102.4) %
same,RDI,"[2]; Study 1, Continuous BID, 400 mg, PWD 5600 mg, N=11, median (range)",80.3 (55.4–102.1) %
same,RDI,"[2]; Study 1, Continuous BID, 480 mg, PWD 6720 mg, N=6, median (range)",50.2 (45.3–83.3) %
same,RDI,"[2]; Study 1, Continuous BID, 600 mg, PWD 8400 mg, N=2, median (range)",103.1 (100–106.2) %
same,RDI,"[2]; Study 1, [2/5] BID, 640 mg, PWD 2560 mg, N=8, median (range)",94.0 (80.9–109.1) %
same,RDI,"[2]; Study 1, [2/5] BID, 800 mg, PWD 3200 mg, N=14, median (range)",101.1 (42.5–133.3) %
same,RDI,"[2]; Study 1, [4/3] BID, 480 mg, PWD 3840 mg, N=127, median (range)",97.9 (26.4–138.9) %
same,RDI,"[2]; Study 1, [4/3] BID, 640 mg, PWD 5120 mg, N=10, median (range)",100.0 (70.5–122.2) %
same,RDI,"[2]; Study 4 (Japanese patients), Continuous BID, 80 mg, PWD 1120 mg, N=3, median (range)",100.0 (88.7–102.3) %
same,RDI,"[2]; Study 4 (Japanese patients), Continuous BID, 240 mg, PWD 3360 mg, N=7, median (range)",100.0 (41.9–106.7) %
same,RDI,"[2]; Study 4 (Japanese patients), Continuous BID, 320 mg, PWD 4480 mg, N=6, median (range)",91.5 (59.3–101.1) %
same,RDI,"[2]; Study 4 (Japanese patients), Continuous BID, 400 mg, PWD 5600 mg, N=5, median (range)",72.1 (51.4–85.7) %
same,RDI,"[2]; Study 4 (Japanese patients), [2/5] BID, 640 mg, PWD 2560 mg, N=6, median (range)",111.2 (100–119) %
same,RDI,"[2]; Study 4 (Japanese patients), [4/3] BID, 360 mg, PWD 2880 mg, N=8, median (range)",107.9 (91.4–112) %
same,RDI,"[2]; Study 4 (Japanese patients), [4/3] BID, 480 mg, PWD 3840 mg, N=6, median (range)",107.9 (79.1–108.6) %
same,RDI,[2]; [4/3] and [2/5] schedules at all dose levels,> 90%
same,RDI,"[2]; continuous schedule, 400 and 480 mg doses",≤ 80%
same,AUC,"[3]; 80 mg, Study 1, Continuous BID, 80 mg, PWD 1120 mg, N=5, median (range), read-out: AUCss(0–12 h)",870 ng·h/mL
same,concentration at 12 h,"[3]; 80 mg, Study 1, Continuous BID, 80 mg, PWD 1120 mg, N=5, median (range)",30 ng/mL
same,AUC at 1 week,[3]; [5],12200 ng·h/mL
same,Cmax,[3]; [5],150 ng/mL
same,AUC,"[3]; 80 mg, Study 4 (Japanese patients), Continuous BID, 80 mg, PWD 1120 mg, N=3, median (range), read-out: AUCss(0–12 h)",1480 ng·h/mL
same,concentration at 12 h,"[3]; 80 mg, Study 4 (Japanese patients), Continuous BID, 80 mg, PWD 1120 mg, N=3, median (range)",60 ng/mL
same,AUC at 1 week,[3]; [6],20700 ng·h/mL
same,Cmax,[3]; [6],220 ng/mL
same,AUC,"[3]; 160 mg, Study 1, Continuous BID, 160 mg, PWD 2240 mg, N=5, median (range), read-out: AUCPWD",41800 ng·h/mL
same,AUC,"[3]; 160 mg, Study 1, Continuous BID, 160 mg, PWD 2240 mg, N=5, median (range), read-out: AUCss(0–12 h)",2990 ng·h/mL
same,concentration at 12 h,"[3]; 160 mg, Study 1, Continuous BID, 160 mg, PWD 2240 mg, N=5, median (range)",110 ng/mL
same,Cmax,"[3]; 160 mg, Study 1, Continuous BID, PWD 2240 mg, N=5, median (range)",420 ng/mL
same,AUC,"[3]; 240 mg, Study 1, Continuous BID, 240 mg, PWD 3360 mg, N=6, median (range), read-out: AUCPWD",44700 ng·h/mL
same,AUC,"[3]; 240 mg, Study 1, Continuous BID, 240 mg, PWD 3360 mg, N=6, median (range), read-out: AUCss(0–12 h)",3190 ng·h/mL
same,concentration at 12 h,"[3]; 240 mg, Study 1, Continuous BID, 240 mg, PWD 3360 mg, N=6, median (range)",110 ng/mL
same,Cmax,"[3]; 240 mg, Study 1, Continuous BID, PWD 3360 mg, N=6, median (range)",530 ng/mL
same,AUC,"[3]; 240 mg, Study 4 (Japanese patients), Continuous BID, 240 mg, PWD 3360 mg, N=7, median (range), read-out: AUCss(0–12 h)",5220 ng·h/mL
same,concentration at 12 h,"[3]; 240 mg, Study 4 (Japanese patients), Continuous BID, 240 mg, PWD 3360 mg, N=7, median (range)",170 ng/mL
same,AUC at 1 week,[3]; [7],73000 ng·h/mL
same,Cmax,[3]; [7],820 ng/mL
same,AUC,"[3]; 320 mg, Study 1, Continuous BID, 320 mg, PWD 4480 mg, N=12, median (range), read-out: AUCPWD",82000 ng·h/mL
